In patent publication US20040029965A1, “Formulations for reducing or eliminating toxicity of enviromental hormones containing ursodeoxycholic acid” (priority 2000, published 2004):

Legend:
Format in all cases: in vivo
C57B1/6J mice [1] = assay: Changes in body weight of mice after a single subcutaneous injection of TCDD; settings: for Weight (body weight): at sacrifice
Experimental: (§1) Male C57B1/6J mice of 5 weeks old having the average weight of 18-22 g which had been bred in CRJ (Charles River in Japan) were purchased and used in this example as experimental animals. Those mice were acclimated under the constant breeding condition, i.e. the temperature of 24±1° C., the humidity of 60±10% and the light and darkness cycle of 12 hours, for one week and thereafter, utilized in the experiment.
(§2) The Experimental animals were supplied with Purina powdered feed (purchased from Hae Eun Trade) and supplied with water ad libitum. All the animals were weighed twice a week during experimentation.
(§3) 2,3,7,8-tetrachlorodibenzo-p-dioxin (TCDD) dissolved in toluene (purity of 95% or more as a result of gas chromatography analysis), manufactured by Chem. Services Inc. in USA, was volatilized with nitrogen to obtain powder. The obtained powder was dissolved in a mixed solvent containing acetone and corn oil with a volume ratio of 1:6. The resulting solution each containing 110, 27.5 and 6.9 μg/kg of TCDD was subcutaneously injected to mice at a volume of 5 ml per body weight. […] The mice were supplied with the feed from 10 days before (pre-administration) to 60 days after administration of TCDD (post-administration).
(§4) The results are expressed as Mean±Standard Deviation values. For statistical analysis of the body weight, feed and water uptake, biochemical findings, hematological findings and the weight of organ in an acute toxicity test, verification was performed by one way analysis of variance (ANOVA) in case of equal distribution. In case significance was recognized in ANOVA, the Student's t-test was performed in the levels of p<0.05 and p<0.01.

C57B1/6J mice [2] = assay: Feed uptake of mice after a single subcutaneous injection of TCDD; parameters: unit not given here
Experimental: as §1, §2, §3, §4

C57B1/6J mice [3] = assay: Effect of UDCA on death (death rate, death time) of mice by a single subcutaneous injection of TCDD
Experimental: as §1, §2, §3, §4

SMILES: Clc1cc2c(cc1Cl)Oc1cc(Cl)c(Cl)cc1O2 [TCDD, 2,3,7,8-tetrachlorodibenzo-p-dioxin]
- body weight (C57B1/6J mice [1]; TCDD 6.9 μg/kg alone, 0 day): 20.22 ± 0.31
- body weight (C57B1/6J mice [1]; TCDD 6.9 μg/kg alone, 12 days): 22.27 ± 0.37
- body weight (C57B1/6J mice [1]; TCDD 6.9 μg/kg alone, 22 days): 23.68 ± 0.36
- body weight (C57B1/6J mice [1]; TCDD 6.9 μg/kg alone, 32 days): 24.37 ± 0.48
- body weight (C57B1/6J mice [1]; TCDD 6.9 μg/kg alone, 39 days): 25.35 ± 0.66
- body weight (C57B1/6J mice [1]; TCDD 6.9 μg/kg alone, 50 days): 27.03 ± 1.35
- body weight (C57B1/6J mice [1]; TCDD 6.9 μg/kg alone, 59 days): 25.98 ± 1.44
- Weight (body weight) (C57B1/6J mice [1]; TCDD 6.9 μg/kg alone): 22.96 ± 3.97 g
- body weight (C57B1/6J mice [1]; TCDD 27.5 μg/kg alone, 0 day): 19.54 ± 0.22
- body weight (C57B1/6J mice [1]; TCDD 27.5 μg/kg alone, 12 days): 20.91 ± 0.52
- body weight (C57B1/6J mice [1]; TCDD 27.5 μg/kg alone, 22 days): 19.82 ± 1.14
- body weight (C57B1/6J mice [1]; TCDD 27.5 μg/kg alone, 32 days): 18.54 ± 1.16
- body weight (C57B1/6J mice [1]; TCDD 27.5 μg/kg alone, 39 days): 17.80 ± 1.40
- body weight (C57B1/6J mice [1]; TCDD 27.5 μg/kg alone, 50 days): 16.74 ± 1.22
- body weight (C57B1/6J mice [1]; TCDD 27.5 μg/kg alone, 59 days): 15.72 ± 1.17
- Weight (body weight) (C57B1/6J mice [1]; TCDD 27.5 μg/kg alone): 16.18 ± 2.51 g
- body weight (C57B1/6J mice [1]; TCDD 110.0 μg/kg alone, 0 day): 19.36 ± 0.31
- body weight (C57B1/6J mice [1]; TCDD 110.0 μg/kg alone, 12 days): 19.96 ± 0.32
- body weight (C57B1/6J mice [1]; TCDD 110.0 μg/kg alone, 22 days): 20.02 ± 0.47
- body weight (C57B1/6J mice [1]; TCDD 110.0 μg/kg alone, 32 days): 19.84 ± 0.55
- body weight (C57B1/6J mice [1]; TCDD 110.0 μg/kg alone, 39 days): 17.62 ± 1.14
- feed uptake (C57B1/6J mice [2]; TCDD 6.9 μg/kg alone, 10 days): 4.76 ± 0.74
- feed uptake (C57B1/6J mice [2]; TCDD 6.9 μg/kg alone, 20 days): 4.33 ± 0.84
- feed uptake (C57B1/6J mice [2]; TCDD 6.9 μg/kg alone, 30 days): 4.97 ± 1.00
- feed uptake (C57B1/6J mice [2]; TCDD 6.9 μg/kg alone, 40 days): 4.97 ± 1.00
- feed uptake (C57B1/6J mice [2]; TCDD 6.9 μg/kg alone, 50 days): 3.51 ± 0.31
- feed uptake (C57B1/6J mice [2]; TCDD 6.9 μg/kg alone, 60 days): 3.28 ± 1.56
- feed uptake (C57B1/6J mice [2]; TCDD 27.5 μg/kg alone, 10 days): 3.86 ± 0.87
- feed uptake (C57B1/6J mice [2]; TCDD 27.5 μg/kg alone, 20 days): 3.17 ± 1.68
- feed uptake (C57B1/6J mice [2]; TCDD 27.5 μg/kg alone, 30 days): 2.37 ± 0.37
- feed uptake (C57B1/6J mice [2]; TCDD 27.5 μg/kg alone, 40 days): 1.90 ± 0.27
- feed uptake (C57B1/6J mice [2]; TCDD 27.5 μg/kg alone, 50 days): 1.50 ± 0.16
- feed uptake (C57B1/6J mice [2]; TCDD 27.5 μg/kg alone, 60 days): 1.58 ± 0.32
- feed uptake (C57B1/6J mice [2]; TCDD 110.0 μg/kg alone, 10 days): 4.19 ± 0.96
- feed uptake (C57B1/6J mice [2]; TCDD 110.0 μg/kg alone, 20 days): 3.21 ± 1.13
- feed uptake (C57B1/6J mice [2]; TCDD 110.0 μg/kg alone, 30 days): 3.88 ± 0.96
- feed uptake (C57B1/6J mice [2]; TCDD 110.0 μg/kg alone, 40 days): 2.23 ± 0.56
- Death rate (C57B1/6J mice [3]; TCDD 6.9 μg/kg alone): 0%
- No. of dead mice/No. of administered mice (C57B1/6J mice [3]; TCDD 6.9 μg/kg alone): 0/10
- Death rate (C57B1/6J mice [3]; TCDD 27.5 μg/kg alone): 30%
- Death time (Mean ± SD) (C57B1/6J mice [3]; TCDD 27.5 μg/kg alone): 55 ± 5 days
- No. of dead mice/No. of administered mice (C57B1/6J mice [3]; TCDD 27.5 μg/kg alone): 3/10
- Death time (Mean ± SD) (C57B1/6J mice [3]; TCDD 110.0 μg/kg alone): 35 ± 7 days
- No. of dead mice/No. of administered mice (C57B1/6J mice [3]; TCDD 110.0 μg/kg alone): 10/10
